Experimental data published in patent US20100028973A1, “METHOD FOR PRO[…] VIRUS, HOLLOW FIBER FOR CULTURING HEPATITIS VIRUS-INFECTED CELLS, AND USE THEREOF” (KYOTO UNIVERSITY, priority 2006, published 2010).

Tested on: patient's serum-derived HCV
Assay: HCV RNA in HuS-E/2 cells cultured in a hollow fiber and infected with patient's serum-derived HCV, with drug added (Example 5)
Format: cell-based, hepatitis C virus (HCV)
Conditions: NIM811 1 μg/ml; added after 24 hours of infection; HuS-E/2 cells in hollow fiber; collected after 3, 5 and 7 days; PCR
Method: HuS-E/2 cells with a density of 1×10^5 cells/well were packed into a lumen of a hollow fiber of a cellulose triacetate hollow fiber module (Toyobo Co., Ltd.; Code: TMHFK-001) by applying a centrifugal force of 80 G for 90 seconds, and then were shake-cultured with use of a 12-well plate. After 24 hours, the culture fluid was replaced with 0.8 ml of a culture fluid, prepared with use of human hepatocellular serum-free culture fluid (Toyobo Co., Ltd.; Code: TMHHM-001), which contained serum-derived HCV with 2×10^5 genome copies/ml. After 24 hours of infection, the culture fluid was removed, and the HuS-E/2 cells were washed with PBS three times. Then, three types of new culture fluid were separately added, namely a culture fluid containing INF alpha (1000 IU/ml), a culture fluid containing NIM811 (1 μg/ml), and a culture fluid containing neither of them. Each of the culture fluids was replaced with a new one every two days. The HuS-E/2 cells were collected after 3, 5, and 7 days of infection with serum-derived HCV, and their total RNA was collected with use of a Sepasol I (Nacalai Tesque, Inc). The total RNA was assayed for HCV RNA by a PCR method.

C/C=C/C[C@@H](C)[C@@H](O)[C@H]1C(=O)N[C@@H](CC)C(=O)N(C)CC(=O)N(C)[C@@H]([C@@H](C)CC)C(=O)N[C@@H](C(C)C)C(=O)N(C)[C@@H](CC(C)C)C(=O)N[C@@H](C)C(=O)N[C@H](C)C(=O)N(C)[C@@H](CC(C)C)C(=O)N(C)[C@@H](CC(C)C)C(=O)N(C)[C@@H](C(C)C)C(=O)N1C [NIM811]
proliferation of patient's serum-derived HCV in the cells (HCV RNA): remarkably inhibits
